This note sets out measurements from patent US20090247520A1, “INHIBITORS OF ANTIGEN RECEPTOR-INDUCED NF-kappa B ACTIVATION” (The Burnham Institute for Medical Research, priority 2008, published 2009).

The subject of series [1] is PMA/Ionomycin-induced p65-RelA DNA-binding activity. Nature of the series: NF-κB p65 DNA-binding activity, PMA/Ionomycin-stimulated HEK293 cells. The class given is cell-based. How it is done: (A) Structures of two hit compounds, CID-2858522 (left) and CID-2998237 (right) are shown; (B, C) 293-NF-κB-luc cells were pretreated for 2 hrs with various concentration of either CID-2858522 (B) or CID-29982387 (C) and then stimulated with TNF (10 ng/mL) or PMA/lonomycin (10 ng/mL; 5 ng/mL) for 16 h. Luciferase activity was measured and data were expressed as a percentage relative to control treatment with DMSO only (mean±SD; n=3). (D) 293-NF-κB-luc cells were pretreated for 2 h with various concentrations of CID-2858522 or CID-2998237, then stimulated with PMA/lonomycin for 16 h. IL-8 release into the medium was measured, expressing data as a percentage relative to control cultures treated with DMSO (mean±SD; n=3). (E) 293-NF-κB-luc cells were pretreated with CID-2858522 and then stimulated with PDBu for 16 h, IL-8 production and NF-κB luciferase activity were measured as above. (F) 293-NF-κB-luc cells were pretreated for 2 h with various concentrations of CID-2858522 or a PKC inhibitor (Bisindolylmaleimide I) at 1 μM followed by PMA/Ionomycin (10 ng/mL) stimulation for 2 h, then p65-DNA-binding activity was measured in nuclear extracts (10 μg protein), expressing data as fold-increase relative to unstimulated cells (mean±SD; n=3).
NF-κB DNA-binding activity assays. Nuclear extracts were prepared from 10 cm^2 plates of confluent cells using a kit (Active Motif, Carsbad, Calif.). The total protein content of nuclear fractions was quantified by the Bradford method, followed by storage at −80° C. NF-κB DNA-binding activity was measured in nuclear extracts (10 μg protein) using an immunoassay method (TransAM Kit [Active Motif]) employing 96 well plates coated with double-strand oligodeoxynucleotides containing NF-κB consensus binding site (5′-[…]-3′) and anti-p65 antibody, which was detected by secondary horseradish peroxidase (HRP)-conjugated antibody, using a calorimetric substrate with absorbance read at 450 nm within 5 minutes using a spectrophotometer, SpectraMax M5 (Molecular Devices, Sunnyvale, Calif.).

In series [2] the test system is PMA/Ionomycin-induced NF-κB reporter gene activity. Nature of the series: Transient transfection NF-κB-luciferase reporter assay (episomal plasmid), PMA/Ionomycin. The class given is cell-based. As to conditions: not shown. How it is done:
Dual-luciferase assay for NF-κB activity. Cells seeded in 96 well black plates were co-transfected with Renilla luciferase plasmid and NF-κB-responsive firefly luciferase reporter gene plasmid, with pcDNA3 control or plasmids encoding various desired proteins, using Lipofectamine 2000. The culture medium was aspirated and cells were washed with PBS, prior to adding 50 μL per well of Passive Lysis Buffer (Promega), followed by addition of Dual-luciferase assay reagent (Promega) and measurement of firefly and renilla luciferase activity, using a spectrofluorimeter.
A general note: In a reporter assay the amount or activity of a reporter protein is the signal.

For series [3], the system named is CLL B-cells. Nature of the series: Cytotoxicity in CLL B-cells by ATP levels. Format: cell-based, human. As to conditions: time-frame analyzed.
Series [4] relates to 353 protein kinases. Nature of the series: KINOMEscan kinome screen, panel of 353 protein kinases. Format: binding, human. As to conditions: 10 μM, of 353 protein kinases surveyed. The source says: CID-2858522 is not a potent protein kinase inhibitor. Protein kinases play critical roles in NF-κB activation. PKCs are proximal kinases in the NF-κB pathways activated by PMA/Ionomycin and by T- and B-cell antigen receptors, while the IKKs are distal kinases operating in the terminal segments of these and other NF-κB activation pathways. We therefore tested whether CID-2858522 inhibits members of these kinase families by in vitro kinase assays. For these experiments, we tested PKC-beta and PKC-theta (the PKC family members implicated in TCR/BCR signaling), and IKK-beta (a component of the IKK complex) (FIG. 6). […] In addition to assessing these three kinases by conventional in vitro kinase assays, a kinome screen was performed using a high throughput screening method, KINOMEscan™, which is an active-site dependent competition binding assay in which human kinases of interest are fused to a proprietary tag (Ambit). The amount of kinase bound to an immobilized, active-site directed ligand is measured in the presence and absence of the test compound. […] Thus, CID-2858522 inhibits none of the protein kinases previously implicated in regulating NF-κB.
In Vitro Kinase Assays. PKC-beta, PKC-theta and IKK-beta in vitro kinase assays were performed using the HTScan Kinase Assay Kit (Cell Signaling, Danvers, Mass.) according to manufacturer's protocols. […]

Series [5] concerns caspase-8 p43/41 processing intermediate. In words: Caspase-8 p43/41 processing in HEK293 cells after PMA/Ion. Format: cell-based. As to conditions: data not shown. The text has this: Caspase-8 plays an essential role in antigen receptor-mediated NF-κB activation. It was recently reported that MALT1 interacts with Caspase-8 and activates this protease upon antigen receptor activation. […] We then examined if CID-2858522 affected the pathway at this point. PMA induced significant MALT1-caspase-8 interaction in HEK293 cells over-expressing Flag-MALT1 and Caspase-8. […] The caspase-8 p43/41 processing intermediate was generated in HEK293 cells after PMA/Ion treatment. […] We then assessed the effects of CID-2858522 on PMA-induced proteolytic processing of c-FLIP, a Caspase-8-mediated event recently shown to be required for antigen receptor mediated NF-κB activation.

The structures appear in SMILES notation.

Take `Cc1cc2nc(NCCCO)n(CC(=O)c3cc(C(C)(C)C)c(O)c(C(C)(C)C)c3)c2cc1C` [Compound 1, 2-(2-(3-Hydroxypropylamino)-5,6-dimethyl-1H-benzo[d]imidazol-1-yl)-1-(3,5-di-tert-butyl-4-hydroxyphenyl)ethanone]: in series [1] (HEK293), the “concentration of maximal suppression of NF-κB DNA-binding activity” value was around 1 µM and the “lowest concentration with evident suppression of NF-κB DNA-binding activity” value was 0.1 µM. Besides, the “inhibition of p65-RelA DNA-binding activity” value in series [1] (compared to PKC inhibitor) is on record as “only partially inhibited”. For the same molecule, in series [2], the “inhibition of NF-κB reporter in transient transfection assay” value is “potently inhibited”. For the same molecule, the “cytotoxicity in CLL B-cells” value in series [3] is on record as “not due to cytotoxicity”. In series [4], the “number of protein kinases suppressed by >50%” value is listed as 3.

Take `CN(C)CCCn1cc(C2=C(c3c[nH]c4ccccc34)C(=O)NC2=O)c2ccccc21` [Bisindolylmaleimide I, reference compound]: the “inhibition of caspase-8 p43/41 processing intermediate” value in series [5] is on record as “inhibited”.
